Experimental data from PMC12172877, “Reverse prenylation in plants by non‐canonical aromatic prenyltransferases” (The Plant Journal, 2025).
Read-outs that look alike come from different tables or passages of the source.

Assays:
Experiment in all cases: Michaelis-Menten kinetics, yeast microsomes, HPLC of product […]
HsRPThxa-tr = system: T1, HsRPThxa-tr; format: biochemical, Hypericum sampsonii; details: optimum pH 9.0-10.0, 40 °C, read-out: apparent KM
T1 construct: gene RPThxa; lacks the N-terminal 24 residues (transit peptide), yeast microsomes

HpRPThxa = system: T2, HpRPThxa; format: biochemical, Hypericum perforatum; details: Mg2+, optimum pH 9.0-9.5, 40 °C, read-out: apparent KM
T2 construct: gene RPThxa; full-length, 1173 bp ORF, pESC-URA, yeast INVSc1 microsomes

HsRPThxa = system: T3, HsRPThxa; format: biochemical, Hypericum sampsonii; details: Mg2+, optimum pH 9.0-9.5, 35 °C, read-out: apparent KM
T3 construct: gene RPThxa; full-length, 1176 bp ORF, pESC-URA, yeast INVSc1 microsomes

[1] = formation of hyperixanthone A (C-4 reverse prenylation), co-substrate DMAPP

| Km (HsRPThxa-tr; co-substrate DMAPP) [µM] | Km (HpRPThxa; [1]) [µM] | Km (HsRPThxa; [1]) [µM] | Km (HsRPThxa-tr; co-substrate patulone) [µM] | Km (HpRPThxa; co-substrate patulone) [µM] | Km (HsRPThxa; co-substrate patulone) [µM] | Structure (SMILES) |
| --- | --- | --- | --- | --- | --- | --- |
| 31.3 ± 4.05 | 46 ± 4.43 | 52.4 ± 4.16 |  |  |  | CC(C)=CCC1(CC=C(C)C)C(=O)C(O)=Cc2oc3cc(O)cc(O)c3c(=O)c21 [compound 2, patulone] |
|  |  |  | 30.9 ± 2.58 | 260 ± 22.9 | 102 ± 6.35 | CC(C)=CCOP(=O)(O)OP(=O)(O)O [DMAPP] |
